What was measured:
[1] = system: human NSCLC cell line NCI-H1792; test: Attenuation of P1-induced IL-6 secretion in NCI-H1792 cells by pre-treatment with plant-produced cytokines (ELISA); assay type: cell-based; conditions: control protein bearing an identical His-tag
in vitro = conditions: human
[2] = system: human NSCLC cell line NCI-H1792; test: IL-6 secretion by NCI-H1792 cells incubated with NSP10-derived peptides (ELISA); assay type: cell-based; conditions: peptide 24 h
SARS-COV-2 = assay type: cell-based; conditions: at 200 µM concentration
[3] = system: human metastatic breast cancer cell line MDA-MB-231; test: IL-6 secretion by MDA-MB-231 cells (P1 stimulation, plantakine pre-incubation; ELISA); assay type: cell-based
Description: IL-6 secretion by the human metastatic breast cancer cell line MDA-MB-231 into the conditioned media was measured by ELISA. The cells were pre-incubated for 3 h in the presence of plant-produced recombinant IL-38 or IL-37b at the indicated concentrations (ng/ml) prior to stimulation with peptide P1 (10 mM). PBS (1×) was added to the control. Shown are the average results of 3 independent experiments. ** P<0.01; * P<0.05, compared with the control.
Correct folding of plant-produced IL-38 and IL-37b anti-inflammatory cytokines was assessed by enzyme-linked immunosorbent assay (ELISA) using the DuoSet Human IL-38/IL-1F10 kit (R&D systems) and the Human IL-37/IL-1F7 uncoated ELISA kit (Invitrogen), respectively, following the instructions of the manufacturers. Secreted IL-6 was assessed using the Human IL-6 Uncoated ELISA kit (Invitrogen).

| Compound | CC50 (in vitro) | stimulation / induction of IL-6 secretion (in words) [2] | further results |
| --- | --- | --- | --- |
| GFP: His-tag containing plant-produced Green Fluorescent Protein used as control protein [reference compound] | – | – | attenuation of P1-induced IL-6 expression (in words) [1]: did not result in any significant attenuation |
| CC[C@H](C)[C@H](NC(=O)[C@H](CCCNC(=N)N)NC(=O)[C@H](CS)NC(=O)[C@H](CCCNC(=N)N)NC(=O)[C@H](CS)NC(=O)[C@H](Cc1ccc(O)cc1)NC(=O)[C@H](CC(C)C)NC(=O)[C@H](CS)NC(=O)[C@H](CS)NC(=O)[C@H](CO)NC(=O)[C@H](C)NC(=O)CNC(=O)CNC(=O)[C@H](Cc1ccccc1)NC(=O)CNC(=O)[C@H](CO)NC(=O)CNC(=O)[C@H](CCCNC(=N)N)NC(=O)[C@H](CCCNC(=N)N)NC(=O)[C@H](CCCNC(=N)N)NC(=O)[C@H](CCC(N)=O)NC(=O)[C@H](CCCNC(=N)N)NC(=O)[C@H](CCCNC(=N)N)NC(=O)[C@H](CCCCN)NC(=O)[C@H](CCCCN)NC(=O)[C@H](CCCNC(=N)N)NC(=O)CNC(=O)[C@H](Cc1ccc(O)cc1)NC(C)=O)C(=O)N[C@@H](CC(=O)O)C(=O)N[C@@H](Cc1c[nH]cn1)C(=O)N1CCC[C@H]1C(=O)N[C@@H](CC(N)=O)C(=O)N1CCC[C@H]1C(=O)N[C@@H](CCCCN)C(=O)NCC(=O)N[C@@H](Cc1ccccc1)C(=O)N[C@@H](CS)C(=O)N[C@@H](CC(=O)O)C(=O)N[C@@H](CC(C)C)C(=O)N[C@@H](CCCCN)C(=O)NCC(=O)N[C@@H](CCCCN)C(=O)N[C@@H](Cc1ccc(O)cc1)C(N)=O [P2] | > 200 µM | no IL-6 induction | effect against the virus-infected cells (SARS-COV-2): no detectable effect |
| CC[C@H](C)[C@H](NC(=O)[C@H](Cc1c[nH]cn1)NC(=O)[C@H](CS)NC(=O)[C@H](CCCNC(=N)N)NC(=O)[C@H](CS)NC(=O)[C@H](Cc1ccc(O)cc1)NC(=O)[C@H](CC(C)C)NC(=O)[C@H](CS)NC(=O)[C@H](CS)NC(=O)[C@H](CO)NC(=O)[C@H](C)NC(=O)CNC(=O)CNC(=O)[C@H](Cc1ccccc1)NC(=O)CNC(=O)[C@H](CO)NC(=O)CNC(=O)[C@H](CCCNC(=N)N)NC(=O)[C@H](CCCNC(=N)N)NC(=O)[C@H](CCCNC(=N)N)NC(=O)[C@H](CCC(N)=O)NC(=O)[C@H](CCCNC(=N)N)NC(=O)[C@H](CCCNC(=N)N)NC(=O)[C@H](CCCCN)NC(=O)[C@H](CCCCN)NC(=O)[C@H](CCCNC(=N)N)NC(=O)CNC(=O)[C@H](Cc1ccc(O)cc1)NC(C)=O)C(=O)N[C@@H](CC(=O)O)C(=O)N[C@@H](Cc1c[nH]cn1)C(=O)N1CCC[C@H]1C(=O)N[C@@H](CC(N)=O)C(=O)N1CCC[C@H]1C(=O)N[C@@H](CCCCN)C(=O)NCC(=O)N[C@@H](Cc1ccccc1)C(=O)N[C@@H](CS)C(=O)N[C@@H](CC(=O)O)C(=O)N[C@@H](CC(C)C)C(=O)N[C@@H](CCCCN)C(=O)NCC(=O)N[C@@H](CCCCN)C(=O)N[C@@H](Cc1ccc(O)cc1)C(N)=O [P1] | 11 µM | – | IL-6 secretion on treatment with peptide (in words) [3]: strongly increased; stimulation of the intrinsic secretion of IL-6 ([2]; normalized to PBS control): > 4 fold |
| YGRKKRRQRRRGSG (HIV-Tat peptide sequence) [TAT sequence peptide, 42, reference compound] | – | not | – |

Source: patent publication US20250101446A1, “METHOD FOR GENETIC TRANSFORMATION OF PLANT ORGANELLE GENOME AND USES THEREOF” (Solar Grants Biotechnology Inc., priority 2022, published 2025)
